{
  "source": "patent US8168656B2",
  "about": "“Indoleacetic acid and indenacetic acid derivatives as therapeutic agents with reduced gastrointestinal toxicity” (Vanderbilt University, priority 2009, dated 2012)",
  "key": {"[1]": {"target": "T1, wild type oCOX-1 (Ovis aries, UniProt P05979)", "T1 construct": "Ram seminal vesicles were purchased from Oxford Biomedical Research; tissue Oxford Biomedical Research; host or cells: ram seminal vesicles", "T1 sequence (P05979 25-600)": "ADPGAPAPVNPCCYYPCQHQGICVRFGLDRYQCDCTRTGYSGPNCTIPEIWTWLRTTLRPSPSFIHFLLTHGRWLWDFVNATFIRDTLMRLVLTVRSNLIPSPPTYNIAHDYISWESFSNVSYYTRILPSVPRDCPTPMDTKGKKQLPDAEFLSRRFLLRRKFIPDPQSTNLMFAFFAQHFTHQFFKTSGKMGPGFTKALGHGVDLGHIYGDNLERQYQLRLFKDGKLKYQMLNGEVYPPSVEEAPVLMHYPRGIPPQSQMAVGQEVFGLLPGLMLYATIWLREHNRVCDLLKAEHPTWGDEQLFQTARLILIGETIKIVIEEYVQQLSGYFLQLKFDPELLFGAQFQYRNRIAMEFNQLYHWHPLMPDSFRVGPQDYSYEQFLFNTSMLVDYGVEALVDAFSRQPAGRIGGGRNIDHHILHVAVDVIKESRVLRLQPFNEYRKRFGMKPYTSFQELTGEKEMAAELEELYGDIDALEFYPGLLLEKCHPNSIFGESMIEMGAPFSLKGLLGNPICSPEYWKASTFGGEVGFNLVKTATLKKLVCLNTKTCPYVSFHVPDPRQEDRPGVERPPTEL", "experiment": "Time-dependent IC50 COX inhibition assay", "assay_type": "biochemical, ovine", "method": "(§1) These mutated genes were used to assemble baculoviral constructs for large-scale expression in Sf9 cells. Purification of the expressed COX-2 protein was performed through traditional cellular fractionation and classical column chromatography. Activity or inhibition assays were performed in 100 mM Tris-HCl buffer containing 500 μM phenol, with hematin-reconstituted protein. Quantification of cyclooxygenase activity was performed by monitoring substrate (arachidonate or oxygen) consumption in a thermostatted cuvette at 37° C. using a polarographic electrode with a 5300 oxygen monitor (Yellow Springs Instrument Co. Inc., Yellow Springs, Ohio, United States of America). All inhibitors and substrates were solubilized in dimethyl sulfoxide (DMSO). Activity or inhibition assays were performed in 100 mM Tris-HCl buffer containing 500 μM phenol, with hematin-reconstituted protein. Maximal reaction velocity data were obtained from the linear portion of the oxygen uptake curves, and the data were analyzed by nonlinear regression with Prism 4.0 (GraphPad Software, San Diego, Calif., United States of America).\n(§2) Time-dependent inhibition reactions were performed by pre-incubating the inhibitor and enzyme for 17 minutes at 25° C., followed by 3 minutes at 37° C. prior to the addition of 50 μM [1-^14C]-AA for 30 seconds at 37° C. Assays were terminated and analyzed for substrate consumption by thin layer chromatography as previously described (Kalgutkar et al., 2000a).\nMaximal reaction velocity data were obtained from the linear portion of the oxygen uptake curves, and the data were analyzed by nonlinear regression. Instantaneous inhibition assays were performed with substrate and inhibitor added prior the initiation of the reaction by addition of protein. […]\nAssays were terminated and analyzed for substrate consumption by thin layer chromatography. […] All reactions were performed with [1-^14C]-AA for 30 seconds at 37° C.; reactions were terminated and analyzed as described above. […]"}, "[2]": {"target": "T2, mCOX-2^V349L (Mus musculus, UniProt Q05769, V335L)", "T2 construct": "made in house; host or cells: Sf9 insect cells (baculovirus, pVL1393)", "T2 sequence (Q05769 18-604 V335L)": "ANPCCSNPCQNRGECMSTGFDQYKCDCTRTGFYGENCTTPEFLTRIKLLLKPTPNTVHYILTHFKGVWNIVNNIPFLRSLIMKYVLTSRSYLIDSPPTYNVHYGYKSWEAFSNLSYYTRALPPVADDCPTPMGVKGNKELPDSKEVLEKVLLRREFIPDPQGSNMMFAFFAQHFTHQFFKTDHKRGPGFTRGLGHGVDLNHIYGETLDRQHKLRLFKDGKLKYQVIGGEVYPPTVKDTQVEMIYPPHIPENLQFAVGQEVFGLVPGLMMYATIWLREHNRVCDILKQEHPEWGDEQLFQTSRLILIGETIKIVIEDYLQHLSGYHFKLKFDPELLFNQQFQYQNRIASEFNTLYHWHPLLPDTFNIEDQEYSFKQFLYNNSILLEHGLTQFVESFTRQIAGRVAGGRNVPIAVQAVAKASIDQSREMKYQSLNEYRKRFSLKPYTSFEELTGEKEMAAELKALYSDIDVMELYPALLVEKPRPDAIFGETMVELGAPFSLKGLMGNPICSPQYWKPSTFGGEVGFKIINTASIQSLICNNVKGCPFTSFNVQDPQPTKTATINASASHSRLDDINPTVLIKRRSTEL", "experiment": "Time-dependent IC50 COX inhibition assay", "assay_type": "biochemical, murine", "method": "as §1, §2\nMaximal reaction velocity data were obtained from the linear portion of the oxygen uptake curves, and the data were analyzed by nonlinear regression. Instantaneous inhibition assays were performed with substrate and inhibitor added prior the initiation of the reaction by addition of protein. Time-dependent screening assays were performed by pre-incubating the inhibitor and enzyme for 17 minutes at 25° C., followed by 3 minutes at 37° C. prior to the addition of 50 μM [1-^14C]-arachidonic acid (AA) for 30 seconds at 37° C.\nAssays were terminated and analyzed for substrate consumption by thin layer chromatography. […] Time-dependent COX inhibition reactions were pre-incubated at 37° C. for varying lengths of time (0-30 minutes) with various concentrations of inhibitor. All reactions were performed with [1-^14C]-AA for 30 seconds at 37° C.; reactions were terminated and analyzed as described above.\nThe COX reaction was allowed to proceed for 30 seconds before termination."}},
  "data": [
    {"smiles": "COc1ccc2c(c1)c(CC(=O)O)cn2C(=O)c1ccc(Cl)cc1", "note": "[DM-INDO, 2-Des-methylindomethacin]", "values": [
      {"measurement": "inhibition of ovine COX-1", "setting": "[1]; concentrations up to 16 μM", "value": "does not appear to be inhibited at all"},
      {"measurement": "inhibition in the time-dependent IC50 assay", "setting": "[1]; wild type oCOX-1", "value": "less than 20%"},
      {"measurement": "IC50", "setting": "[1]; wild type oCOX-1, 20 min pre-incubation, then 50 μM AA for 30 s", "value": "> 16", "unit": "µM"},
      {"measurement": "inhibition in the time-dependent IC50 assay", "setting": "[2]", "value": "less than 20%"},
      {"measurement": "IC50", "setting": "[2]; 20 min pre-incubation, then 50 μM AA for 30 s", "value": "> 16", "unit": "µM"}
    ]}
  ]
}
